From ChEMBL document CHEMBL1145159 (J Med Chem, 2005)
pEC50, pIC50: −log10 of the molar value. “And” between values parts separate entries of the source, which are not always exact repeats. Equal values may be shown once. Peptide text beside a SMILES is read from it.

Tests used:
[1] = target: T1, Neuronal acetylcholine receptor; alpha4/beta2 (Homo sapiens, UniProt P17787+P43681); assay: Maximal response against Nicotinic acetylcholine receptor alpha4-beta2; assay type: protein-complex assay
[2] = target: T2, Neuronal acetylcholine receptor; alpha4/beta4 (Homo sapiens, UniProt P30926+P43681); assay: Maximal response against Nicotinic acetylcholine receptor alpha4-beta4; assay type: protein-complex assay
[3] = target: T3, Neuronal acetylcholine receptor; alpha3/beta4 (Homo sapiens, UniProt P30926+P32297); assay: Maximal response against Nicotinic acetylcholine receptor alpha3-beta4; assay type: protein-complex assay
[4] = target: Neuronal acetylcholine receptor subunit alpha-7 (Rattus norvegicus) (UniProt Q05941); assay: Maximal response against Nicotinic acetylcholine receptor alpha 7
[5] = target: T1, Neuronal acetylcholine receptor; alpha4/beta2; assay: Maximal response against Nicotinic acetylcholine receptor alpha4-beta2 expressed in HEK293 cells; assay type: cell-based
[6] = target: T4, Neuronal acetylcholine receptor; alpha2/beta4 (Homo sapiens, UniProt P30926+Q15822); assay: Maximal response against Nicotinic acetylcholine receptor alpha2-beta4 expressed in HEK293 cells; assay type: cell-based
[7] = target: T5, Neuronal acetylcholine receptor; alpha3/beta2 (Homo sapiens, UniProt P17787+P32297); assay: Maximal response against Nicotinic acetylcholine receptor alpha3-beta2 expressed in HEK293 cells; assay type: cell-based
[8] = target: T5, Neuronal acetylcholine receptor; alpha3/beta2; assay: Effective concentration against Nicotinic acetylcholine receptor alpha3-beta2; assay type: protein-complex assay
[9] = target: T2, Neuronal acetylcholine receptor; alpha4/beta4; assay: Effective concentration against Nicotinic acetylcholine receptor alpha4-beta4; assay type: protein-complex assay
[10] = target: T3, Neuronal acetylcholine receptor; alpha3/beta4; assay: Effective concentration against Nicotinic acetylcholine receptor alpha3-beta4; assay type: protein-complex assay
[11] = target: T4, Neuronal acetylcholine receptor; alpha2/beta4; assay: Effective concentration against Nicotinic acetylcholine receptor alpha2-beta4; assay type: protein-complex assay
[12] = target: T1, Neuronal acetylcholine receptor; alpha4/beta2; assay: Effective concentration against Nicotinic acetylcholine receptor alpha4-beta2; assay type: protein-complex assay
[13] = target: T4, Neuronal acetylcholine receptor; alpha2/beta4; assay: Maximal response against Nicotinic acetylcholine receptor alpha2-beta4; assay type: protein-complex assay
[14] = target: T5, Neuronal acetylcholine receptor; alpha3/beta2; assay: Maximal response against Nicotinic acetylcholine receptor alpha3-beta2; assay type: protein-complex assay
[15] = Effective concentration against Nicotinic acetylcholine receptor alpha4-beta2 expressed in xenopus oocytes; assay type: cell-based; details: oocyte
[16] = Effective concentration against Nicotinic acetylcholine receptor alpha3-beta4 expressed in xenopus oocytes; assay type: cell-based; details: oocyte
[17] = target: T5, Neuronal acetylcholine receptor; alpha3/beta2; assay: Effective concentration against Nicotinic acetylcholine receptor alpha3-beta2 expressed in xenopus oocytes; assay type: cell-based, Oocyte
[18] = Effective concentration against Nicotinic acetylcholine receptor alpha4-beta4 expressed in xenopus oocytes; assay type: cell-based; details: oocyte
[19] = Effective concentration against Nicotinic acetylcholine receptor alpha2-beta4 expressed in xenopus oocytes; assay type: cell-based; details: oocyte
[20] = target: T5, Neuronal acetylcholine receptor; alpha3/beta2; assay: Inhibitory concentration against Nicotinic acetylcholine receptor alpha3-beta2; assay type: protein-complex assay
[21] = target: T3, Neuronal acetylcholine receptor; alpha3/beta4; assay: Inhibitory concentration against Nicotinic acetylcholine receptor alpha3-beta4; assay type: protein-complex assay
[22] = target: T6, Neuronal acetylcholine receptor subunit alpha-7 (Homo sapiens, UniProt P36544); assay: Inhibitory concentration against Nicotinic acetylcholine receptor alpha 7
[23] = target: T6, Neuronal acetylcholine receptor subunit alpha-7; assay: Effective concentration against Nicotinic acetylcholine receptor alpha 7
[24] = target: T1, Neuronal acetylcholine receptor; alpha4/beta2; assay: (§1) Inhibitory concentration against Nicotinic acetylcholine receptor alpha4-beta2; assay type: protein-complex assay
[25] = target: T4, Neuronal acetylcholine receptor; alpha2/beta4; assay: Inhibitory concentration against Nicotinic acetylcholine receptor alpha2-beta4; assay type: protein-complex assay
[26] = target: T1, Neuronal acetylcholine receptor; alpha4/beta2; assay: as §1; assay type: protein-complex assay; remark: listed apart in the source

Sequence of Neuronal acetylcholine receptor subunit alpha-7 (Rattus norvegicus) (Q05941 whole entry): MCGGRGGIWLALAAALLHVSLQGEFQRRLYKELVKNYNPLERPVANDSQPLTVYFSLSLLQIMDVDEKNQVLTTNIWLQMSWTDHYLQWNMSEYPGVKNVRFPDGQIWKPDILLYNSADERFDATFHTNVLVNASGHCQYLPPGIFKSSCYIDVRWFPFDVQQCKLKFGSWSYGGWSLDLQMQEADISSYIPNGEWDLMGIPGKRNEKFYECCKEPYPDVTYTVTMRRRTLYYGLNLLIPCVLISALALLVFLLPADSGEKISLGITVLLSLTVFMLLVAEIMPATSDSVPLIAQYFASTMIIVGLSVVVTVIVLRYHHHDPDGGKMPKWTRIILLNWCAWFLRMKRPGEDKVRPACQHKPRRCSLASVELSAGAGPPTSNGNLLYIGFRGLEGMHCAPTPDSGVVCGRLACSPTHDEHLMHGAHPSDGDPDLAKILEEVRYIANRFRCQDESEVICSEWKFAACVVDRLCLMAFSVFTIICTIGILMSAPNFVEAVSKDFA
T5 sequence (P17787 whole entry): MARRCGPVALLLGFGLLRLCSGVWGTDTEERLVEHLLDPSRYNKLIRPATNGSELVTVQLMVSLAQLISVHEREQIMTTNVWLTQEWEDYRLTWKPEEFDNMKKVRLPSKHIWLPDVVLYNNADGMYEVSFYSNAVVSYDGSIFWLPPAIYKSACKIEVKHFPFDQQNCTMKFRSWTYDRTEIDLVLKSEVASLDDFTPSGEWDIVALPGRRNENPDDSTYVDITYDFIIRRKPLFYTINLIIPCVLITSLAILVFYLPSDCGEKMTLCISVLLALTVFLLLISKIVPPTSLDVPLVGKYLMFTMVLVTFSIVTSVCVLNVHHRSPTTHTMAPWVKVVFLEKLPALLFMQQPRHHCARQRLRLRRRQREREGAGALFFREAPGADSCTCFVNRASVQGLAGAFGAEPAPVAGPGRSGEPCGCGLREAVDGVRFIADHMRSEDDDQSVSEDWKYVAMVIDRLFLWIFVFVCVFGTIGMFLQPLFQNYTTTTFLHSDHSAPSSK
T5 sequence (P32297 whole entry): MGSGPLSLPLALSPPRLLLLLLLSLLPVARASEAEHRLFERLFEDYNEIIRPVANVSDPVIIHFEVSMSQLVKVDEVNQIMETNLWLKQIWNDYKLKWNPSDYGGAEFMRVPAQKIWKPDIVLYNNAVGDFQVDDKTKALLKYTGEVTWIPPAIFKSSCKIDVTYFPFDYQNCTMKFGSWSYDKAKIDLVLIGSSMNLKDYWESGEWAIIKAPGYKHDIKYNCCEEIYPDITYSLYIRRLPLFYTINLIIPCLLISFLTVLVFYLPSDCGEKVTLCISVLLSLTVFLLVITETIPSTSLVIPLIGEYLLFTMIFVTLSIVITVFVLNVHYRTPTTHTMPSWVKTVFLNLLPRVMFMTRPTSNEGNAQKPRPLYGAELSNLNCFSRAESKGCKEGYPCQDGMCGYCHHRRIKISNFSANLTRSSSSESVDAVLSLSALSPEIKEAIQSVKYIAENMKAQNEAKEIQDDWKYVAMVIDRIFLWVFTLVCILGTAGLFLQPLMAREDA
T1 sequence (P17787 whole entry): as the sequence (P17787 whole entry) above
T1 sequence (P43681 whole entry): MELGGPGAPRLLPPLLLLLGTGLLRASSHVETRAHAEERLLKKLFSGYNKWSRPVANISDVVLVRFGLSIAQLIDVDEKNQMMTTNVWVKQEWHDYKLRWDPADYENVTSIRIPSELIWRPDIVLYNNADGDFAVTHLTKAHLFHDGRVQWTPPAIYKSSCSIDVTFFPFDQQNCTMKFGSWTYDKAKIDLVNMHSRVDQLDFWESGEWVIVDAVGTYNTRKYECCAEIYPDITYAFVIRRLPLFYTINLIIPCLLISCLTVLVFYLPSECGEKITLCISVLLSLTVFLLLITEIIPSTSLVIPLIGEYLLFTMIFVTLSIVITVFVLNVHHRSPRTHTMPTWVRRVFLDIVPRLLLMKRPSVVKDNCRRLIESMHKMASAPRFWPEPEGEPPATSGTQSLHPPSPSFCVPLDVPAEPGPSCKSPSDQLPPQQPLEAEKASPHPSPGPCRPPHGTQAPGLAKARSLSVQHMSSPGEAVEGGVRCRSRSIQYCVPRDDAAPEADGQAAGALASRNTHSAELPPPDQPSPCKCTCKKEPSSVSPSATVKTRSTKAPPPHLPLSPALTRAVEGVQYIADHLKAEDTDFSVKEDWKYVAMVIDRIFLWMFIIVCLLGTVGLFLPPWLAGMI
T6 sequence (P36544 whole entry): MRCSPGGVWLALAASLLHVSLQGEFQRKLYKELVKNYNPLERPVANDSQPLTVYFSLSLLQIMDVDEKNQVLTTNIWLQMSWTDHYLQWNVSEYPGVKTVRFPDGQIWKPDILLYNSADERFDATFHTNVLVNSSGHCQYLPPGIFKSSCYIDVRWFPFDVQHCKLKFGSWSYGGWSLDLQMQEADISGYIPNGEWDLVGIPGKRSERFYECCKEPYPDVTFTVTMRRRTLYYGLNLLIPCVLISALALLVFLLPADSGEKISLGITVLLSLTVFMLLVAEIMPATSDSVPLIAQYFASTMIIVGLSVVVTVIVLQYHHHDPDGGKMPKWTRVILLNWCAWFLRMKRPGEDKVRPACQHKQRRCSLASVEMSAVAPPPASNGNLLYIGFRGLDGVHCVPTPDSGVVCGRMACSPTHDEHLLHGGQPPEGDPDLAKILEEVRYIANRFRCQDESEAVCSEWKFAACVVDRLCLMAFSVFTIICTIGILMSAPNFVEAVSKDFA
T4 sequence (P30926 whole entry): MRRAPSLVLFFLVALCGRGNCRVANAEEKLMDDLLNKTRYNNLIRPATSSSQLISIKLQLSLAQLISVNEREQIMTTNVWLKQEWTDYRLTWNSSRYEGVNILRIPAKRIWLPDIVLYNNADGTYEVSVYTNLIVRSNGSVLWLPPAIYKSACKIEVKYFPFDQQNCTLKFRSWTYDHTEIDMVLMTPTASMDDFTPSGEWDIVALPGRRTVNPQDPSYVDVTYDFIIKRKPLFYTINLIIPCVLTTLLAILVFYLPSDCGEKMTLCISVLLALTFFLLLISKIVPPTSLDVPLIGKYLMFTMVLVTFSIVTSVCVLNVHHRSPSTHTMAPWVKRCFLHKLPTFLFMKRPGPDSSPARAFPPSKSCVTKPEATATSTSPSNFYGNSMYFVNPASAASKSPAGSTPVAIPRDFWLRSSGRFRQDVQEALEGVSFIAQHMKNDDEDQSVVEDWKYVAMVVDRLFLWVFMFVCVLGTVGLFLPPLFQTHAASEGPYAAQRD
T4 sequence (Q15822 whole entry): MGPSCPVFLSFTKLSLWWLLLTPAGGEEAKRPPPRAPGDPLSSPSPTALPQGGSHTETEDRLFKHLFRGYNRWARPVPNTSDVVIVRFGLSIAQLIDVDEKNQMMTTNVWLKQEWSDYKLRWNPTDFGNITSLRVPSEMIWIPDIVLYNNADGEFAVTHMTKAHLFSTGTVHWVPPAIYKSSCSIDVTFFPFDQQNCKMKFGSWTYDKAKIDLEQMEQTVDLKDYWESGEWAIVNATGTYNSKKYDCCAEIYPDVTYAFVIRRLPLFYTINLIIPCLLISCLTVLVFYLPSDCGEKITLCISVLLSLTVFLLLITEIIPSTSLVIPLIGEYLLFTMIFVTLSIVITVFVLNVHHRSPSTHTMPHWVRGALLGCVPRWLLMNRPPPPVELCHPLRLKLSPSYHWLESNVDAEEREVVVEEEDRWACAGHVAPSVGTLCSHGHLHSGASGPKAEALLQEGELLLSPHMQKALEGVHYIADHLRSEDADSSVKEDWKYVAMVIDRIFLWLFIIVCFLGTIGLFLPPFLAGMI
T3 sequence (P30926 whole entry): as the sequence (P30926 whole entry) above
T3 sequence (P32297 whole entry): as the sequence (P32297 whole entry) above
T2 sequence (P30926 whole entry): as the sequence (P30926 whole entry) above
T2 sequence (P43681 whole entry): as the sequence (P43681 whole entry) above

c1cncc(C2CC3CCC2N3)c1 (stereo not drawn)
Rmax [1]: 112%
Rmax [2]: 147%
Rmax [3]: 61%

Cc1ncccc1OC[C@@H]1CCN1
Rmax [4]: > 1000%
Rmax [3]: < 15%

O=c1c(Br)ccc2n1C[C@@H]1CNC[C@H]2C1
Rmax [1]: 23%
Rmax [2]: 70%
Rmax [4]: 100%

Fc1ccc(C2CC3CCC2N3)cn1 (stereo not drawn)
Rmax [1]: 41%
Rmax [2]: 131%
Rmax [3]: 40%

Clc1ccc(C2CC3CCC2N3)cn1 (stereo not drawn)
Rmax [5]: 117%
Rmax [6]: 115%
Rmax [2]: 99% and 85%
Rmax [4]: 97%
Rmax [7]: 163%

c1ccc(-c2cnc3c(c2)CC2(CN4CCC2CC4)O3)cc1 (stereo not drawn)
Rmax [4]: 85%
pEC50 [8]: < 4.00
pEC50 [9]: < 4.00
pEC50 [10]: < 4.00
pEC50 [11]: < 4.00
pEC50 [12]: < 4.00

Clc1ccc(OC[C@@H]2CCN2)cn1
Rmax [1]: 161%
Rmax [4]: 85%
Rmax [3]: 166%

O=c1cccc2n1C[C@@H]1CNC[C@H]2C1 [CYTISINICLINE]
Rmax [1]: 11% and 2%
Rmax [5]: 42%
Rmax [13]: 58%
Rmax [14]: 23 µM
pEC50 [15]: 5.57
pEC50 [16]: 4.14
Rmax [4]: 90% and 105%
pEC50 [17]: 4.17
pEC50 [18]: 6.05
pEC50 [19]: 4.41
Rmax [7]: 55%

CSCC[C@H](NC(=O)[C@H](CC(N)=O)NC(=O)[C@H](CS)NC(=O)[C@@H]1CCCN1C(=O)[C@H](CCCNC(=N)N)NC(=O)[C@H](CC(=O)O)NC(=O)[C@H](CO)NC(=O)[C@H](CS)NC(=O)[C@H](CS)NC(=O)CN)C(=O)N[C@@H](CC(N)=O)C(=O)N[C@@H](CC(N)=O)C(=O)N1CCC[C@H]1C(=O)N[C@@H](CC(=O)O)C(=O)N[C@@H](Cc1ccc(O)cc1)C(=O)N[C@@H](CS)C(N)=O (H-GCCSDRPCNMNNPDYC-NH2)
pIC50 [20]: 7.52
pIC50 [21]: 7.52
pIC50 [22]: 7.52

CN1CCC[C@H]1c1cccnc1 [NICOTINE]
Rmax [1]: 73%
Rmax [5]: 3.5%
Rmax [13]: 114%
Rmax [6]: 100%
pEC50 [15]: 5.26
Rmax [2]: 100% and 85% and 108%
pEC50 [16]: 4.10
Rmax [4]: 74% and 97%
pEC50 [18]: 5.30
pEC50 [19]: 4.68
Rmax [7]: 100%

COc1ccc(/C=C2\CCCN=C2c2cccnc2)c(OC)c1 [GTS-21]
Rmax [1]: 0%
Rmax [4]: 23% and 28%
pEC50 [9]: < 5.00
pEC50 [10]: < 5.00
pEC50 [12]: < 5.00

C[C@H](NC(=O)[C@H](Cc1ccccc1)NC(=O)[C@H](CS)NC(=O)[C@@H]1CCCN1C(=O)[C@@H]1CCCN1C(=O)[C@H](Cc1ccc(O)cc1)NC(=O)[C@H](CO)NC(=O)[C@H](CS)NC(=O)[C@H](CS)NC(=O)CN)C(=O)N[C@H](C(=O)N[C@@H](CC(N)=O)C(=O)N[C@@H](CO)C(=O)N[C@@H](CC(=O)O)C(=O)N[C@@H](Cc1ccc(O)cc1)C(=O)N[C@@H](CS)C(N)=O)[C@@H](C)O
pIC50 [21]: < 6.12

C[C@H](NC(=O)[C@H](Cc1ccccc1)NC(=O)[C@H](CS)NC(=O)[C@@H]1CCCN1C(=O)[C@@H]1CCCN1C(=O)[C@H](Cc1ccc(O)cc1)NC(=O)[C@H](CO)NC(=O)[C@H](CS)NC(=O)[C@H](CS)NC(=O)CN)C(=O)N[C@H](C(=O)N[C@@H](CC(N)=O)C(=O)N[C@@H](CO)C(=O)NCC(=O)N[C@@H](Cc1ccc(O)cc1)C(=O)N[C@@H](CS)C(N)=O)[C@@H](C)O
pIC50 [21]: < 6.12

CC(NC(C)(C)C)C(=O)c1cccc(Cl)c1 (stereo not drawn) [BUPROPION]
pIC50 [22]: 4.30

H-AGGSDRRCRWR-NH2
pIC50 [22]: 6.36

CN1C2CC[C@@H]1CC2c1ccnnc1 (stereo partly drawn)
pEC50 [23]: 4.60
pEC50 [8]: 7.89
pEC50 [12]: 6.49

CN1CCC[C@H]1CCSc1ccc(O)cc1
Rmax [1]: 13%
Rmax [13]: 102%
pEC50 [23]: < 5.00
Rmax [14]: 9%
Rmax [2]: 62%
Rmax [3]: 71%

c1cnc2c(c1)O[C@H]1CCN3CC[C@@]1(C2)C3 [DIANICLINE]
Rmax [1]: 19%
pEC50 [8]: < 4.00
pEC50 [12]: < 4.00

CNC1(C)C2CCC(C2)C1(C)C (stereo not drawn) [MECAMYLAMINE]
Concentration [24]: 0.78 µM
pIC50 [20]: 6.55
pIC50 [25]: 5.51 and 4.80
pIC50 [22]: 4.91

CC[C@H](C)[C@H](NC(=O)[C@H](Cc1c[nH]cn1)NC(=O)[C@H](CCC(N)=O)NC(=O)[C@H](CC(N)=O)NC(=O)[C@H](CC(N)=O)NC(=O)CNC(=O)[C@H](C)NC(=O)[C@H](CS)NC(=O)[C@H](C)NC(=O)[C@@H]1CCCN1C(=O)[C@H](Cc1c[nH]cn1)NC(=O)[C@H](CO)NC(=O)[C@H](CS)NC(=O)[C@H](CS)NC(=O)CN)C(=O)N[C@@H](CS)C(N)=O
pIC50 [26]: 8.96
pIC50 [20]: 8.96
pIC50 [22]: 8.96
